The text below walks through data of patent US20080261994A1, “CYCLOPROPANE COMPOUNDS AND PHARMACEUTICAL USE THEREOF” (Japan Tobacco Inc., priority 2003, published 2008).

What all share (format): biochemical
Assay [1] addresses T1, Recombinant Human MMP-13 (Homo sapiens, UniProt P45452).
T1 construct: purchased R&D systems 511-MM
Description: MMP-13 inhibitory activity (MMP-13 specific fluorescent substrate with quencher). In short, it runs like this:
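IC50 (μM) derived from % inhibition, normalised to wells without enzyme and without inhibitor, fluorescence read at 325/405 nm. Enzyme and compound preceded addition of the quenched 7-MCA…DPA substrate; Tris-HCl buffer, 25 °C for 1 h, acetic-acid stop.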

Assay [2] addresses T2, MMP-1 (Homo sapiens, UniProt P03956).
T2 sequence (P03956 100-469): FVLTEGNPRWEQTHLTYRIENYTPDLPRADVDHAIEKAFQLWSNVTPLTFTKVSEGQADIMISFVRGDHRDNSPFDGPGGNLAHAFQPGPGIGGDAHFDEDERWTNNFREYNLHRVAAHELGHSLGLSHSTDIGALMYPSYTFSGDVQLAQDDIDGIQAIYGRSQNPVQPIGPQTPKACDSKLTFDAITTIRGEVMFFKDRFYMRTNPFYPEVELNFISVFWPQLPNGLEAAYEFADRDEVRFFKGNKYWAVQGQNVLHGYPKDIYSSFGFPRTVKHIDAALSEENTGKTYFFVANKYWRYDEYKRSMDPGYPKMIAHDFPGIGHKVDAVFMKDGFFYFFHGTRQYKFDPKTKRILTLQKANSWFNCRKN
The assay is described as follows: MMP-1 inhibitory action (Type I collagen Activity Measurement kit, FITC-labeled collagen type I).

In assay [3] the target is T3, aggrecanase-1 (Homo sapiens, UniProt O75173).
T3 sequence (O75173 213-837): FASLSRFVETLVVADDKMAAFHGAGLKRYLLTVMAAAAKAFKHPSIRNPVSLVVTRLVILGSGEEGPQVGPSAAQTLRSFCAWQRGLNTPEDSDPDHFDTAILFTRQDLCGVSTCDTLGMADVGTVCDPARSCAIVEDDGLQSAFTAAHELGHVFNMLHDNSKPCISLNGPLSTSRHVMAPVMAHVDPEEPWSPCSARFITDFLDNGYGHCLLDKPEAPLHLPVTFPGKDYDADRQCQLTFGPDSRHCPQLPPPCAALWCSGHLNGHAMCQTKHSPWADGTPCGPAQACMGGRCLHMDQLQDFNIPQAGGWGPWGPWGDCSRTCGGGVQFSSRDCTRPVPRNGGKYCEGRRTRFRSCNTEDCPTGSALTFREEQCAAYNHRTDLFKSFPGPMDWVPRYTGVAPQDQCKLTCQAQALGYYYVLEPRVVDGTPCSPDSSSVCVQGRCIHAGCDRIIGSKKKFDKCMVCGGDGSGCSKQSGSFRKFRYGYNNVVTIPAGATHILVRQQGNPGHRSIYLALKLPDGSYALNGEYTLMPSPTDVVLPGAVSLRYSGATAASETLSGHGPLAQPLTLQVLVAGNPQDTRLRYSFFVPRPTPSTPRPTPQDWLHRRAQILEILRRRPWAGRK
The assay is described as follows: Aggrecanase-1 inhibitory action (Particle Assay, GAG release from aggrecan-containing polyacrylamide particles). In short, it runs like this: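 Readout was dimethylmethylene blue absorbance (595 nm) of glycosaminoglycan liberated into supernatant, calibrated with whale chondroitin sulfate. Substrate was aggrecan in polyacrylamide particles, digested 15 h at 37° C in Tris-HCl; TC50 (μM) derived from inhibition relative to no-enzyme and no-inhibitor controls.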

Where [4] appears, read: Experimental Example 3, read-out: IC50 MMP13.
Setting [5] is: Experimental Example 2, read-out: IC50 MMP1.
Where [6] appears, read: Experimental Example 1, read-out: IC50 AG1.
[7] abbreviates: Recombinant Human MMP-13, fluorescent substrate, 25° C. for 1 h, read-out: IC50 MMP13 (Experimental Example 3).
Setting [8] is: MMP-1 inhibitory action, FITC-labeled collagen type I, 37° C. for 3 hr, read-out: IC50 MMP1 (Experimental Example 2).
Setting [9] is: aggrecanase-1 inhibitory action, read-out: IC50 AG1 (Experimental Example 1).

pIC50: −log10 of the molar value. Like-named read-outs stand apart in the source and are kept apart here.

What is called pIC50 is the IC50 on a negative log10 scale, so that one unit is a factor of ten.

For `COc1cc(-c2ccc(S(=O)(=O)N[C@@]3(C(=O)O)C[C@]3(C)c3ccccc3)s2)ccc1Cl` [Example 2-516], the figures for the pIC50 in assay [1] (setting [4]), in assay [2] (setting [5]) and in assay [3] (setting [6]) were more than 6.00, not above 6.00 and more than 6.00, respectively.
With `O=C(O)C1(CS(=O)(=O)N2CCN(c3ccc(Cl)cc3)CC2)CC1c1ccccc1` (stereo not drawn) [Example 2-186], the results for the pIC50 in assay [1] (setting [7]), in assay [2] (setting [8]) and in assay [3] (setting [9]) were not above 6.00, not above 5.00 and not above 6.00, respectively.
`O=C(O)[C@]1(NS(=O)(=O)c2ccc(-c3cc(CF)sn3)s2)C[C@@H]1c1ccccc1` [Example 2-120]: the values for the pIC50 in assay [1] (setting [7]), in assay [2] (setting [8]) and in assay [3] (setting [9]) were more than 7.00, more than 6.00 and more than 7.00, respectively.
With `O=C(O)C1(NS(=O)(=O)c2ccc(-c3cc(C(F)(F)F)on3)s2)CC1(CN1CCCCC1)c1ccccc1` (stereo not drawn) [Example 2-330], the pIC50 in assay [1] (setting [4]) is not above 6.00; in assay [2] (setting [5]), not above 5.00; in assay [3] (setting [6]) it was not above 6.00.
`CC1[C@H](c2ccccc2)[C@]1(NS(=O)(=O)c1ccc(Br)s1)C(=O)O` (stereo partly drawn) [Example 2-427]: the negative-log IC50 (pIC50) is not above 6.00 in assay [1] (setting [4]), more than 6.00 in assay [2] (setting [5]) and not above 5.00 in assay [3] (setting [6]).
The matching figures for `O=C(NCC1(c2ccccc2)CC1(NS(=O)(=O)c1ccc(-c2ccc(Cl)cc2)s1)C(=O)O)N1CCOCC1` (stereo not drawn) [Example 2-381]: more than 6.00, not above 5.00 and more than 6.00.
For `CC1[C@H](c2ccccc2)[C@]1(NS(=O)(=O)N1CCN(C/C=C/c2ccccc2)CC1)C(=O)O` (stereo partly drawn) [Example 2-537], the pIC50 in assay [1] (setting [4]), in assay [2] (setting [5]) and in assay [3] (setting [6]) was not above 6.00 throughout.
Take `O=C(O)C1(NS(=O)(=O)c2ccc3c(c2)Cc2cc(Cl)ccc2-3)CC1c1ccccc1` (stereo not drawn) [Example 1-94]: the pIC50 in assay [1] (setting [7]) is more than 7.00; in assay [2] (setting [8]), not above 6.00; in assay [3] (setting [9]) it was more than 7.00.
For `CC1[C@H](c2ccccc2)[C@]1(NS(=O)(=O)N1CCCN(c2ccc(Cl)cc2)CC1)C(=O)O` (stereo partly drawn) [Example 2-454], the pIC50 was not above 6.00 in assay [1] (setting [4]), not above 5.00 in assay [2] (setting [5]) and more than 6.00 in assay [3] (setting [6]).
The corresponding values for `NCCCC1(c2ccccc2)CC1(NS(=O)(=O)c1ccc(-c2ccc(Cl)cc2)s1)C(=O)O` (stereo not drawn) [Example 2-285] are not above 6.00, not above 6.00 and more than 6.00.
`O=C(O)C1(NS(=O)(=O)c2ccc(-c3ccc(Cl)cc3)s2)CC1c1cccc(OCCO)c1` (stereo not drawn) [Example 1-86]: the pIC50 is more than 6.00 in assay [1] (setting [7]), not above 6.00 in assay [2] (setting [8]) and more than 6.00 in assay [3] (setting [9]).
In the case of `O=C(O)C1(NS(=O)(=O)c2ccc(-c3ccc(Cl)cc3)s2)CC1c1ccccc1CN1CCOCC1` (stereo not drawn) [Example 2-91], the results for the pIC50 in assay [1] (setting [7]), in assay [2] (setting [8]) and in assay [3] (setting [9]) were more than 6.00, not above 5.00 and more than 6.00, respectively.
For `Cc1nc(-c2ccc(S(=O)(=O)N[C@@]3(C(=O)O)C[C@@H]3c3ccccc3)s2)cs1` [Example 2-50], the pIC50 in assay [1] (setting [7]) is not above 6.00; in assay [2] (setting [8]) it was not above 5.00; in assay [3] (setting [9]) it was not above 6.00.
Regarding `C[C@@H]1CN(CC2(c3ccccc3)CC2(NS(=O)(=O)c2ccc(-c3ccc(Cl)cc3)s2)C(=O)O)C[C@H](C)O1` (stereo partly drawn) [Example 2-344], the pIC50 in assay [1] (setting [4]) is more than 6.00; in assay [2] (setting [5]) it was not above 5.00; in assay [3] (setting [6]), more than 7.00.
For `O=C(Cc1cccc(C2CC2(NS(=O)(=O)c2ccc(-c3cc(C(F)(F)F)on3)s2)C(=O)O)c1)N1CCC(O)CC1` (stereo not drawn) [Example 2-222], the pIC50 was more than 7.00 in assay [1] (setting [7]), not above 6.00 in assay [2] (setting [8]) and more than 7.00 in assay [3] (setting [9]).
Take `CC(C)(O)C#Cc1ccc(S(=O)(=O)N[C@@]2(C(=O)O)C[C@@H]2c2ccccc2)s1` [Example 2-130]: the figures for the pIC50 in assay [1] (setting [7]), in assay [2] (setting [8]) and in assay [3] (setting [9]) were not above 6.00, not above 5.00 and not above 6.00, respectively.
For the compound `CC1[C@H](c2ccccc2)[C@]1(NS(=O)(=O)c1ccc(-n2cc(Br)cn2)s1)C(=O)O` (stereo partly drawn) [Example 2-494], the pIC50 in assay [1] (setting [4]), in assay [2] (setting [5]) and in assay [3] (setting [6]) was more than 7.00 throughout.
On to `O=C(O)C1(NS(=O)(=O)c2ccc(-c3ccc(Cl)cc3)s2)C2CCCc3ccccc3C21` (stereo not drawn) [Example 2-8, (1R*,1aS*,8bS*)-1-[5-(4-chloro-phenyl)thiophene-2-sulfonylamino]-1,1a,2,3,4,8b-hexahydrobenzo[a]cyclopropane[c]cyclohepten-1-carboxylic acid], for which the pIC50 in assay [1] (setting [7]) was more than 7.00; in assay [2] (setting [8]), not above 6.00; in assay [3] (setting [9]), more than 7.00.
Consider `CC(C)C1(c2ccccc2)CC1(NS(=O)(=O)c1ccc(-c2ccc(Cl)cc2)s1)C(=O)O` (stereo not drawn) [Example 2-123], for which the pIC50 in assay [1] (setting [7]) is more than 6.00; in assay [2] (setting [8]), not above 5.00; in assay [3] (setting [9]), more than 6.00.
Take `O=C(O)CSCC1(c2ccccc2)CC1(NS(=O)(=O)c1ccc(-c2ccc(Cl)cc2)s1)C(=O)O` (stereo not drawn) [Example 2-358]: the pIC50 in assay [1] (setting [4]) was more than 6.00; in assay [2] (setting [5]), not above 6.00; in assay [3] (setting [6]), more than 7.00.
On to `CN(C)C(=O)Cc1ccccc1C1CC1(NS(=O)(=O)c1ccc(-c2ccc(Cl)cc2)s1)C(=O)O` (stereo not drawn) [Example 2-204], for which the pIC50 was more than 6.00 in assay [1] (setting [7]), not above 5.00 in assay [2] (setting [8]) and more than 7.00 in assay [3] (setting [9]).
For the compound `CC1[C@H](c2ccccc2)[C@]1(NS(=O)(=O)N1CCC(OCc2ccc(Cl)cc2)C1)C(=O)O` (stereo partly drawn) [Example 2-550], the pIC50 in assay [1] (setting [4]), in assay [2] (setting [5]) and in assay [3] (setting [6]) was not above 6.00 in each case.
For the compound `COCCCC1(c2ccccc2)CC1(NS(=O)(=O)c1ccc(-c2cc(C(F)(F)F)on2)s1)C(=O)O` (stereo not drawn) [Example 2-588], the pIC50 in assay [1] (setting [4]) was more than 6.00; in assay [2] (setting [5]) it was more than 6.00; in assay [3] (setting [6]), more than 7.00.
Turning to `CC(=O)N1CC=C(c2ccc(S(=O)(=O)N[C@@]3(C(=O)O)C[C@@H]3c3ccccc3)s2)CC1` [Example 2-177], the pIC50 in assay [1] (setting [7]) was not above 6.00; in assay [2] (setting [8]), not above 5.00; in assay [3] (setting [9]) it was not above 6.00.
Regarding `CCC1[C@@H](c2ccccc2)[C@@]1(NS(=O)(=O)c1ccc(-c2cc(C(F)(F)F)on2)s1)C(=O)O` (stereo partly drawn) [Example 2-327], the values for the pIC50 in assay [1] (setting [4]), in assay [2] (setting [5]) and in assay [3] (setting [6]) were more than 7.00, more than 6.00 and more than 6.00, respectively.
`O=C(O)C1(NS(=O)(=O)c2ccc(-c3ccc(Cl)cc3)s2)CC1c1ccc(N2CCOCC2)cc1` (stereo not drawn) [Example 2-245]: the pIC50 in assay [1] (setting [7]) is more than 6.00; in assay [2] (setting [8]) it was not above 5.00; in assay [3] (setting [9]), not above 6.00.
The corresponding values for `O=C(NCCC(F)(F)F)c1ccc(S(=O)(=O)NC2(C(=O)O)CC2c2ccccc2)s1` (stereo not drawn) [Example 2-97] are not above 5.00, not above 5.00 and not above 5.00.
On to `C[C@]1(c2ccccc2)C[C@@]1(NS(=O)(=O)c1ccc(-c2cc(C(F)(F)F)on2)s1)C(=O)O` [Example 2-6, (1S,2R)-2-methyl-2-phenyl-1-[5-(5-trifluoromethyl-isoxazol-3-yl)-thiophene-2-sulfonylamino]-cyclopropanecarboxylic acid], for which the pIC50 was more than 6.00 in assay [1] (setting [7]), not above 6.00 in assay [2] (setting [8]) and more than 7.00 in assay [3] (setting [9]).
Turning to `COCCN1CCN(S(=O)(=O)N[C@@]2(C(=O)O)C(C)[C@@H]2c2ccccc2)CC1` (stereo partly drawn) [Example 2-534], the pIC50 in assay [1] (setting [4]), in assay [2] (setting [5]) and in assay [3] (setting [6]) was not above 6.00 throughout.
Regarding `CSCC1(c2ccccc2)CC1(NS(=O)(=O)c1ccc(-c2ccc(Cl)cc2)s1)C(=O)O` (stereo not drawn) [Example 2-432], the pIC50 in assay [1] (setting [4]) is more than 6.00; in assay [2] (setting [5]), not above 6.00; in assay [3] (setting [6]), more than 7.00.
For `CN1CCN(C(=O)Cc2cccc(C3CC3(NS(=O)(=O)c3ccc(-c4ccc(Cl)cc4)s3)C(=O)O)c2)CC1` (stereo not drawn) [Example 2-191], the figures for the pIC50 in assay [1] (setting [7]), in assay [2] (setting [8]) and in assay [3] (setting [9]) were more than 7.00, not above 5.00 and more than 7.00, respectively.
